“Also recorded” adds a separate entry of the source. Where two headings read alike, the source gives them in different places.
Tests used:
[1] = test system: Yeast ALDH (E.C. 1.2.1.5); assay: In vitro inhibition of yeast ALDH; assay type: biochemical; settings: for time to complete inhibition of ALDH: inhibitor at ten-fold the IC50; for IC50: read-out: ALDH inhibition IC50, 37 °C preincubation
[2] = molecular target: ALDH peptide A286-R307 (AIDWIAAGIFYLNSGQNCTANSR) (Saccharomyces cerevisiae, UniProt P47771); assay: LC-MS reactivity with ALDH peptide A286-R307
UniProt P47771, sequence (P47771 286-307): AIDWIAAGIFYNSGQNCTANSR

[3] = test system: Yeast ALDH (E.C. 1.2.1.5); assay: In vitro reactivation of inhibited yeast ALDH by DTT; assay type: biochemical; settings: inhibitor at ten-times IC50, DTT 10 mM
[4] = test system: Yeast ALDH (E.C. 1.2.1.5); settings: read-out: ALDH inhibition, reported IC50; ref [24], [25]; cited from earlier work
[5] = Water solubility in buffer; assay type: physicochemical
[6] = UV-Vis spectroscopy assay for decomposition in buffer; settings: no PLE
[7] = buffer; cited from earlier work
[8] = buffer, pH 7.4
[9] = molecular target: oxymyoglobin (MbO2) (Equus caballus, UniProt P68082); assay: UV-vis assay of metMb formation from MbO2; assay type: biochemical
oxymyoglobin (MbO2), sequence (P68082 whole entry): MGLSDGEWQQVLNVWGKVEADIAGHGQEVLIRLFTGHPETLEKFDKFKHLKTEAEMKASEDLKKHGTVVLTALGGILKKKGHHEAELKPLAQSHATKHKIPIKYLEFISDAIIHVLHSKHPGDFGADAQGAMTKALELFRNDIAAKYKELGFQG

[10] = 10 eq. reagent, peptide 10 μM, no PLE, room temperature

Compound	time to complete inhibition of ALDH [1] [min]	IC50 ([1]; absence of PLE) [nM]	Product(s) of reaction with ALDH peptide [2, 10]	ALDH enzyme activity restored by DTT ([3]; no PLE) [%]	IC50 [4] [nM]	decomposition t1/2 (comparison value) [7] [h]	also measured
[Na+].[Na+].[O-][N+]([O-])=NO [AS, Angeli’s salt (NaN2O3, AS)]	≤ 10	2100	sulfinamide-minor; also recorded: dhA -major	46	1800		Product(s) of reaction with ALDH peptide ([2]; 1000 eq. reagent): sulfinamide
O=Nc1ccccc1 [NB, Nitrosobenzene]	≤ 10	200	N-phenyl sulfinamide	15	2500		
CC(=O)OC1(N=O)CCOCC1 [compound 4, 4-Nitrosotetrahydro-2H-pyran-4-yl Acetate]							solubility [5]: 1700 µM; decomposition rate constant k ([6]; buffered conditions, PBS 100 mM pH 7.4, 37 °C): 3e-05 s⁻¹
CC(C)(C)C(=O)OC1(N=O)CCCCC1 [compound 2]						37.8	
4-Nitrosotetrahydro-2H-pyran-4-yl Pivalate [compound 5]		3300	RSSR	63			IC50 ([1]; presence of PLE (9 U/μmol)): 3500 nM; Product(s) of reaction with ALDH peptide ([2]; 10 eq. reagent + PLE (9 U/μmol), room temperature): RSSR and sulfinamide; ALDH enzyme activity restored by DTT ([3]; in the presence of PLE): 43%; decomposition t1/2 [8]: 32 h; decomposition rate constant k ([6]; 3 % mixture of DMF:PBS (100 mM, pH 7.4), 37 °C): 6e-06 s⁻¹; rate constant of MbO2 conversion to metMb ([9]; MbO2 42 μM, compound 84 μM, PLE 9 U/μmol, PBS pH 7.4, 37 °C): 0.0003 s⁻¹; reaction with MbO2 (absorption spectra) ([9]; absence of PLE): no change in the absorption spectra
CC(=O)OC1(N=O)CCCCC1 [compound 1]						14.8	

From paper PMC3518590 (Journal of inorganic biochemistry, 2012)
